Measurements reported in patent US11083717B2, “Compositions and methods for drug sensitization of parasites” (The Texas A&M University System, priority 2015, dated 2021).
Where two headings read alike, the source gives them in different places.

Assays:
S. cerevisiae = assay: in vitro; details: Saccharomyces cerevisiae
Source text: (§1) These tests included an IL-12 mouse model test to determine compound efficacy, verification of MIC50 for CP, cytotoxicity test for fibroblasts and yeast to determine potential toxic effects, a Human ether-a-go-go-related gene (hERG) test to determine potential cardiotoxicity, an AMES test tp determine mutagenic potential, a Safety Screen 44 test to determine common negative off-target drug interastion (Eurofins Cerep, SA, France), a cytochrome P450 (CYP) test to determine potential liver toxicity, a maximum tolerated dose, test, a Pharmacokinetics (PK) test to determine fate of the substance administered to a living organism tests for plasma stability in human and mouse, to measure the degradation of compound in plasma MClint and HClint test to determine in vitro intrinsic clearance for Mouse and Human, and kinetic solubility and plasma protein binding tests in mouse and human.

human fibroblast = assay: in vitro
Source text: as §1

Structure (SMILES) | concentrations at which not toxic, S. cerevisiae cytotoxicity testing (S. cerevisiae) [µM] | concentrations at which not toxic, human fibroblast cytotoxicity testing (human fibroblast; human) [µM] | concentrations at which not toxic, human fibroblast cytotoxicity testing (human fibroblast) [µM]
COC(=O)C(C)(C)Oc1ccc(Oc2cnc3cc(Cl)ccc3n2)cc1 [NZ-314, methyl 2-{4-[(6-chloroquinoxalin-2-yl)oxy]phenoxy}-2-methylpropanoate] | ≥ 100 | ≥ 100 | –
CONC(=O)C(C)c1ccc(Oc2nc3ccc(OC)cc3s2)cc1 (stereo not drawn) [NZ-335, N-methoxy-2-{4-[(6-methoxy-1,3-benzothiazol-2-yl)oxy]phenyl}propanamide] | ≥ 100 | ≥ 100 | –
CC(C(=O)O)c1ccc(Oc2nc3ccc(Cl)cc3s2)cc1 (stereo not drawn) [NZ-312, 2-{4-[(6-chloro-1,3-benzothiazol-2-yl)oxy]phenyl}propanoic acid] | ≥ 100 | ≥ 100 | –
NCc1ccc(Oc2nc3ccc(Cl)cc3s2)cc1 [NZ-348, {4-[(6-chloro-1,3-benzothiazol-2-yl)oxy]phenyl}methanamine] | 25 to 50 | – | –
O=C(O)Cc1ccc(Oc2nc3cc(F)c(F)cc3s2)cc1 [NZ-399, 2-{4-[(5,6-difluoro-1,3-benzothiazol-2-yl)oxy]phenyl}acetic acid] | ≥ 100 | – | ≥ 100
CN(C)C(=O)NCc1ccc(Oc2nc3ccc(Cl)cc3s2)cc1 [NZ-349, 1-({4-[(6-chloro-1,3-benzothiazol-2-yl)oxy]phenyl}methyl)-3,3-dimethylurea] | ≥ 100 | – | –
CC(C)NC(=O)Nc1ccc(Oc2nc3c(F)cccc3s2)cc1 [NZ-374, 1-{4-[(4-fluoro-1,3-benzothiazol-2-yl)oxy]phenyl}-3-(propan-2-yl)urea] | ≥ 100 | ≥ 100 | –
CC(C)NC(=O)Nc1ccc(Oc2nc3ccc(C#N)cc3s2)cc1 [NZ-377, 1-{4-[(6-cyano-1,3-benzothiazol-2-yl)oxy]phenyl}-3-(propan-2-yl)urea] | ≥ 100 | – | ≥ 100
CNC(=O)C(C)c1ccc(Oc2nc3cc(Cl)c(Cl)cc3s2)cc1 (stereo not drawn) [NZ-394, 2-{4-[(5,6-dichloro-1,3-benzothiazol-2-yl)oxy]phenyl}-N-methylpropanamide] | ≥ 100 | ≥ 100 | –
CC(C)NC(=O)Nc1ccc(Oc2nc3cc(F)ccc3s2)cc1 [NZ-373, 1-{4-[(5-fluoro-1,3-benzothiazol-2-yl)oxy]phenyl}-3-(propan-2-yl)urea] | ≥ 100 | – | ≥ 100
COC(=O)C(C)c1ccc(Oc2cnc3cc(Cl)ccc3n2)cc1 (stereo not drawn) [NZ-308, methyl 2-{4-[(6-chloroquinoxalin-2-yl)oxy]phenyl}propanoate] | ≥ 100 | ≥ 100 | –
Cc1ccc2nc(Oc3ccc(NC(=O)NC(C)C)cc3)sc2c1 [NZ-358, 1-{4-[(6-methyl-1,3-benzothiazol-2-yl)oxy]phenyl}-3-(propan-2-yl)urea] | ≥ 100 | – | –
O=C(Nc1ccc(Oc2nc3ccc(Cl)cc3s2)cc1)N1CCNCC1 [NZ-509, N-{4-[(6-chloro-1,3-benzothiazol-2-yl)oxy]phenyl}piperazine-1-carboxamide] | ≥ 100 | ≥ 100 | –
CC(C)NC(=O)Cc1ccc(O)cc1Oc1nc2ccc(F)cc2s1 [NZ-406, 2-{2-[(6-fluoro-1,3-benzothiazol-2-yl)oxy]-4-hydroxyphenyl}-N-(propan-2-yl)acetamide] | ≥ 100 | ≥ 100 | –
CC(C)(C)OC(=O)NCCC(=O)Nc1ccc(Oc2nc3ccc(F)cc3s2)cc1 [NZ-414, tert-butyl N-[2-({4-[(6-fluoro-1,3-benzothiazol-2-yl)oxy]phenyl}carbamoyl)ethyl]carbamate] | ≥ 100 | ≥ 100 | –
CC(C(=O)N1CCN(C2CC2)CC1)c1ccc(Oc2nc3ccc(Cl)cc3s2)cc1 (stereo not drawn) [NZ-511, 2-{4-[(6-chloro-1,3-benzothiazol-2-yl)oxy]phenyl}-1-(4-cyclopropylpiperazin-1-yl)propan-1-one] | ≥ 100 | ≥ 100 | –
O=C(O)Cn1ccc(Oc2nc3ccc(Cl)cc3s2)cc1=O [NZ-397, 2-{4-[(6-chloro-1,3-benzothiazol-2-yl)oxy]-2-oxo-1,2-dihydropyridin-1-yl}acetic acid] | ≥ 100 | – | ≥ 100

Structure (SMILES) | concentrations at which not toxic, S. cerevisiae cytotoxicity testing (S. cerevisiae) [µM] | concentrations at which not toxic, human fibroblast cytotoxicity testing (human fibroblast; human) [µM] | concentrations at which not toxic, human fibroblast cytotoxicity testing (human fibroblast) [µM]
CC(C)(C)OC(=O)Nc1ccc(Oc2nc3ccc(Cl)cc3s2)cc1 [NZ-351, tert-butyl N-{4-[(6-chloro-1,3-benzothiazol-2-yl)oxy]phenyl}carbamate] | ≥ 100 | – | –
CONC(=O)C(O)c1ccc(Oc2nc3ccc(Cl)cc3s2)cc1 (stereo not drawn) [NZ-338, 2-{4-[(6-chloro-1,3-benzothiazol-2-yl)oxy]phenyl}-2-hydroxy-N-methoxyacetamide] | – | ≥ 100 | –
Nc1ccc(Oc2nc3ccc(Cl)cc3s2)cc1 [NZ-352, 4-[(6-chloro-1,3-benzothiazol-2-yl)oxy]aniline] | 25 to 50 | – | –
CNC(=O)Nc1ccc(Oc2nc3ccc(Cl)cc3s2)cc1 [NZ-353, 1-{4-[(6-chloro-1,3-benzothiazol-2-yl)oxy]phenyl}-3-methylurea] | ≥ 100 | – | –
CONC(=O)C(OC)c1ccc(Oc2nc3ccc(Cl)cc3s2)cc1 (stereo not drawn) [NZ-357, 2-{4-[(6-chloro-1,3-benzothiazol-2-yl)oxy]phenyl}-N,2-dimethoxyacetamide] | ≥ 100 | – | –
COC(=O)COc1ccc(Oc2nc3ccc(F)cc3s2)cc1 [NZ-303, methyl 2-{4-[(6-fluoro-1,3-benzothiazol-2-yl)oxy]phenoxy}acetate] | – | ≥ 100 | –
COC(C(=O)O)c1ccc(Oc2nc3ccc(Cl)cc3s2)cc1 (stereo not drawn) [NZ-356] | ≥ 100 | – | –
CCOC(=O)[C@@H](C)Oc1ccc(Oc2nc3ccc(Cl)cc3o2)cc1 [fenoxaprop-p-ethyl, ethyl (2R)-2-{4-[(6-chloro-1,3-benzoxazol-2-yl)oxy]phenoxy}propanoate, reference compound] | – | ≥ 100 | –
CC(C)NC(=O)Nc1ccc(Oc2ccc3cc(Cl)ccc3n2)cc1 [NZ-346, 1-{4-[(6-chloroquinolin-2-yl)oxy]phenyl}-3-(propan-2-yl)urea] | – | – | ≥ 100
CC(C)NC(=O)Nc1ccc(Oc2nc3ccc(Br)cc3s2)cc1 [NZ-359, 1-{4-[(6-bromo-1,3-benzothiazol-2-yl)oxy]phenyl}-3-(propan-2-yl)urea] | ≥ 100 | – | –
CN(C)C(=O)Nc1ccc(Oc2cnc3cc(Cl)ccc3n2)cc1 [NZ-343, 1-{4-[(6-chloroquinoxalin-2-yl)oxy]phenyl}-3,3-dimethylurea] | – | ≥ 100 | –
CN(C)C(=O)Nc1ccc(Oc2nc3ccc(Cl)cc3s2)cc1 [NZ-354, 1-{4-[(6-chloro-1,3-benzothiazol-2-yl)oxy]phenyl}-3,3-dimethylurea] | 50 to 100 | – | –
C[C@@H](Oc1ccc(Oc2nc3ccc(Cl)cc3o2)cc1)C(=O)O [fenoxaprop-p, (R)-2-[4-(6-chlorobenzoxazol-2-yloxy)phenoxy]propionic acid, reference compound] | – | – | ≥ 100
CC(C)NC(=O)Nc1ccc(Oc2nc3ccccc3s2)cc1 [NZ-360, 1-{4-(1,3-benzothiazol-2-yloxy)phenyl]-3-(propan-2-yl)urea] | ≥ 100 | – | –
COC(=O)C(OC)c1ccc(Oc2nc3ccc(Cl)cc3s2)cc1 (stereo not drawn) [NZ-355, methyl 2-{4-[(6-chloro-1,3-benzothiazol-2-yl)oxy]phenyl}-2-methoxyacetate] | ≥ 100 | – | –
CNC(=O)NCc1ccc(Oc2nc3ccc(Cl)cc3s2)cc1 [NZ-350, 1-({4-[(6-chloro-1,3-benzothiazol-2-yl)oxy]phenyl}methyl)-3-methylurea] | ≥ 100 | – | –
CC(C)NC(=O)Nc1ccc(Oc2cnc3cc(F)ccc3n2)cc1 [NZ-345, 1-{4-[(6-fluoroquinoxalin-2-yl)oxy]phenyl}-3-(propan-2-yl)urea] | – | – | ≥ 100
